Experimental data from patent US4285941A, “Cephalosporin compounds and antibacterial drugs containing the same” (Eisai Co., Ltd., priority 1979, dated 1981).
Where a name gives a salt, the structure may show the parent alone.

Columns and labels:
Experiment in all cases: Minimal inhibitory concentration (MIC), standard agar dilution method
Format in all cases: cell-based
Escherichia coli NIHJ = settings: Mueller Hinton agar, 37° C., 18 hours, Examples 1, 2, 4, 5, 6, 8 and 22 as sodium salts, others as free carboxylic acids
Description: (§1) The compounds obtained in these examples were tested for their antibacterial activities in vitro. Minimal inhibitory concentration (MIC) was determined by the standard agar dilution method of the Japan Society of Chemotherapy. Compounds were dissolved in appropriate solvents (sterilized water for sodium salts and acetone-water [1:1] for free acids) and serial two-fold dilutions were made. Sodium salt of Cefazolin was chosen as the control compound. One-ml aliquots of each dilution were mixed with 9 ml of Mueller Hinton agar in petri-dishes to make agar plates containing the compound at serially diluted concentrations. After agar hardened, plates were put in an incubator at 37° C. for 1.5-2 hours with the lids slightly open to evaporate acetone off the plates. Test organisms were grown for 18 hours at 37° C. in Trypticase Soy broth and diluted in saline to approximately 10^6 colony forming units per ml. A loopful of each cell suspension was applied on the agar plate mentioned above and the plates were incubated for 18 hours at 37° C. before MIC was determined. MIC values of the compounds of Examples 1, 2, 4, 5, 6, 8 and 22 were determined as their sodium salts and those of other compounds as free carboxylic acids.

[1] = test system: Klebsiella pneumoniae EK-6; settings: EK6, Mueller Hinton agar, 37° C., 18 hours, Examples 1, 2, 4, 5, 6, 8 and 22 as sodium salts, others as free carboxylic acids
Description: as §1

Proteus morganii EP-14 = settings: Morganella morganii, EP14; Mueller Hinton agar, 37° C., 18 hours; Examples 1, 2, 4, 5, 6, 8 and 22 as sodium salts, others as free carboxylic acids
Description: as §1

[2] = test system: Pseudomonas aeruginosa EP-172; settings: EP172, Mueller Hinton agar, 37° C., 18 hours, Examples 1, 2, 4, 5, 6, 8 and 22 as sodium salts, others as free carboxylic acids
Description: as §1

[3] = test system: Serratia marcescens ES-75; settings: ES75, Mueller Hinton agar, 37° C., 18 hours, Examples 1, 2, 4, 5, 6, 8 and 22 as sodium salts, others as free carboxylic acids
Description: as §1

[4] = test system: Staphylococcus aureus 209-P; settings: Mueller Hinton agar, 37° C., 18 hours, Examples 1, 2, 4, 5, 6, 8 and 22 as sodium salts, others as free carboxylic acids
Description: as §1

Row | Compound | MIC (Escherichia coli NIHJ) | MIC [1] | MIC (Proteus morganii EP-14) | MIC [2] | MIC [3] | MIC [4]
1 | CC(=O)Oc1cc2c(=O)c(C(=O)N[C@@H](C(=O)N[C@@H]3C(=O)N4C(C(=O)O)=C(CSc5nnnn5C)CS[C@H]34)c3ccc(O)cc3)coc2c(OC(C)=O)c1OC(C)=O [Example 29, 7β-[D-2-(6,7,8-Triacetoxychromone-3-carboxamido)-2-(4-hydroxyphenyl)acetamido]-3-[(1-methyltetrazol-5-yl)thiomethyl]-3-cephem-4-carboxylic acid] | 1.56 µg/mL | ≤ 0.1 µg/mL | 12.5 µg/mL | 0.4 µg/mL | 0.4 µg/mL | 1.56 µg/mL
2 | CC(=O)Oc1ccc2c(=O)c(C(=O)N[C@@H](C(=O)N[C@@H]3C(=O)N4C(C(=O)O)=C(CSc5nnc(C)s5)CS[C@H]34)c3ccccc3)coc2c1OC(C)=O [Example 10, 7β-[D-2-(7,8-Diacetoxychromone-3-carboxamido)-2-phenyl-acetamido]-3-[(5-methyl-1,3,4-thiadiazol-2-yl)thiomethyl]-3-cephem-4-carboxylic acid] | 0.8 µg/mL | ≤ 0.1 µg/mL | 1.56 µg/mL | 1.56 µg/mL | 0.2 µg/mL | 0.8 µg/mL
3 | CC(=O)Oc1cc2occ(C(=O)N[C@@H](C(=O)N[C@@H]3C(=O)N4C(C(=O)O)=C(CSc5nnc(C)s5)CS[C@H]34)c3ccccc3)c(=O)c2cc1OC(C)=O [Example 6, 7β-[D-2-(6,7-Diacetoxychromone-3-carboxamido)-2-phenylacetamido]-3-[(5-methyl-1,3-4-thiadiazol-2-yl)thiomethyl]-3-cephem-4-carboxylic acid] | 0.8 µg/mL | ≤ 0.1 µg/mL | 0.8 µg/mL | 3.13 µg/mL | ≤ 0.1 µg/mL | 1.56 µg/mL
4 | CC(=O)Oc1cc2occ(C(=O)N[C@@H](C(=O)N[C@@H]3C(=O)N4C(C(=O)O)=C(CSc5nnc(C)s5)CS[C@H]34)c3ccc(O)cc3)c(=O)c2cc1OC(C)=O [Example 8, 7β-[D-2-(6,7-Diacetoxychromone-3-carboxamido)-2-(4-hydroxyphenyl)acetamido]-3-[(5-methyl-1,3,4-thiadiazol-2-yl)thiomethyl]-3-cephem-4-carboxylic acid] | 0.8 µg/mL | ≤ 0.1 µg/mL | 1.56 µg/mL | 1.56 µg/mL | ≤ 0.1 µg/mL | 3.13 µg/mL
5 | CC(=O)Oc1cc2occ(C(=O)N[C@@H](C(=O)N[C@@H]3C(=O)N4C(C(=O)O)=C(CSc5nnnn5C)CS[C@H]34)c3ccc(O)cc3)c(=O)c2cc1OC(C)=O [Example 7, 7β-[D-2-(6,7-Diacetoxychromone-3-carboxamido)-2-(4-hydroxyphenyl)acetamido]-3-[(1-methyltetrazol-5-yl)thiomethyl]-3-cephem-4-carboxylic acid] | ≤ 0.1 µg/mL | ≤ 0.1 µg/mL | 0.4 µg/mL | 0.4 µg/mL | ≤ 0.1 µg/mL | 1.56 µg/mL
6 | CC(=O)Oc1ccc2c(=O)c(C(=O)N[C@@H](C(=O)N[C@@H]3C(=O)N4C(C(=O)O)=C(CSc5nnc(C)s5)CS[C@H]34)c3ccc(O)cc3)coc2c1OC(C)=O [Example 12, 7β[D-2-(7,8-Diacetoxychromone-3-carboxamido)-2-(4-hydroxyphenyl)acetamido]-3-[(5-methyl-1,3,4-thiadiazol-2-yl)thiomethyl]-3-cephem-4-carboxylic acid] | 1.56 µg/mL | ≤ 0.1 µg/mL | 3.13 µg/mL | 1.56 µg/mL | 0.2 µg/mL | 1.56 µg/mL
7 | CC(=O)Oc1cc2c(=O)c(C(=O)N[C@@H](C(=O)N[C@@H]3C(=O)N4C(C(=O)O)=C(CSc5nnnn5CC(=O)O)CS[C@H]34)c3ccc(O)cc3)coc2c(OC(C)=O)c1OC(C)=O [Example 31, 7β-[D-2-(6,7,8-Triacetoxychromone-3-carboxamido)-2-(4-hydroxyphenyl)acetamido]-3-[(1-carboxymethyltetrazol-5-yl)thiomethyl]-3-cephem-4-carboxylicacid] | 0.8 µg/mL | ≤ 0.1 µg/mL | 25 µg/mL | 0.8 µg/mL | 0.8 µg/mL | 12.5 µg/mL

The remaining lines, values ahead:

Row | MIC (Escherichia coli NIHJ) | MIC [1] | MIC (Proteus morganii EP-14) | MIC [2] | MIC [3] | MIC [4] | Compound
8 | 1.56 µg/mL | 1.56 µg/mL | > 100 µg/mL | > 100 µg/mL | > 100 µg/mL | 0.4 µg/mL | Cc1nnc(SCC2=C(C(=O)O)N3C(=O)[C@@H](NC(=O)Cn4cnnn4)[C@H]3SC2)s1 [Sodium salt of Cefazolin, reference compound]
9 | 1.56 µg/mL | ≤ 0.1 µg/mL | 12.5 µg/mL | 6.25 µg/mL | 3.13 µg/mL | 0.8 µg/mL | Cn1nnnc1SCC1=C(C(=O)O)N2C(=O)[C@@H](NC(=O)[C@H](NC(=O)c3coc4c(O)c(O)ccc4c3=O)c3ccc(O)cc3)[C@H]2SC1 [Example 9, 7β-[D-2-(7,8-Dihydroxychromone-3-carboxamido)-2-(4-hydroxyphenyl)acetamido]-3-[(1-methyltetrazol-5-yl)thiomethyl]-3-cephem-4-carboxylic acid]
10 | 1.56 µg/mL | ≤ 0.1 µg/mL | 50 µg/mL | 1.56 µg/mL | 0.4 µg/mL | 3.13 µg/mL | O=C(O)C1=C(CSc2nnc[nH]2)CS[C@@H]2[C@H](NC(=O)[C@H](NC(=O)c3coc4cc(O)c(O)cc4c3=O)c3ccc(O)cc3)C(=O)N12 [Example 22]
11 | 0.8 µg/mL | ≤ 0.1 µg/mL | 0.8 µg/mL | 3.13 µg/mL | ≤ 0.1 µg/mL | 1.56 µg/mL | Cc1nnc(SCC2=C(C(=O)O)N3C(=O)[C@@H](NC(=O)[C@H](NC(=O)c4coc5cc(O)c(O)cc5c4=O)c4ccccc4)[C@H]3SC2)s1 [Example 2, 7β-[D-2-(6,7-Dihydroxychromone-3-carboxamido)-2-phenyl-acetamido]-3-[(5-methyl-1,3,4-thiadiazol-2-yl)thiomethyl]-3-cephem-4-carboxylic acid]
12 | 0.4 µg/mL | ≤ 0.1 µg/mL | 25 µg/mL | 0.8 µg/mL | ≤ 0.1 µg/mL | 0.8 µg/mL | O=C(O)C1=C(CSc2ccccn2)CS[C@@H]2[C@H](NC(=O)[C@H](NC(=O)c3coc4cc(O)c(O)cc4c3=O)c3ccc(O)cc3)C(=O)N12 [Example 24, 7β-[D-2-(6,7-Dihydroxychromone-3-carboxamido)-2-(4-hydroxyphenyl)acetamido]-3-(2-pyridylthiomethyl)-3-cephem-4-carboxylic acid]
13 | 0.8 µg/mL | ≤ 0.1 µg/mL | 50 µg/mL | 1.56 µg/mL | 0.2 µg/mL | 0.8 µg/mL | O=C(O)C1=C(CSc2ncccn2)CS[C@@H]2[C@H](NC(=O)[C@H](NC(=O)c3coc4cc(O)c(O)cc4c3=O)c3ccc(O)cc3)C(=O)N12 [Example 26, 7β-[D-2-(6,7-Dihydroxychromone-3-carboxamido)-2-(4-hydroxyphenyl)acetamido]-3-(2-pyrimidinylthiomethyl)-3-cephem-4-carboxylic acid]
14 | 0.4 µg/mL | ≤ 0.1 µg/mL | 12.5 µg/mL | 0.8 µg/mL | ≤ 0.1 µg/mL | 1.56 µg/mL | CN(C)CCn1nnnc1SCC1=C(C(=O)O)N2C(=O)[C@@H](NC(=O)[C@H](NC(=O)c3coc4cc(O)c(O)cc4c3=O)c3ccc(O)cc3)[C@H]2SC1 [Example 21, 7β-[D-2-(6,7-Dihydroxychromone-3-carboxamido)-2-(4-hydroxyphenyl)acetamido]-3-{[1-(2-dimethylaminoethyl)tetrazol-5-yl]-thiomethyl}-3-cephem-4-carboxylic acid]
15 | 0.4 µg/mL | ≤ 0.1 µg/mL | 12.5 µg/mL | 0.8 µg/mL | ≤ 0.1 µg/mL | 3.13 µg/mL | O=C(O)Cn1nnnc1SCC1=C(C(=O)O)N2C(=O)[C@@H](NC(=O)[C@H](NC(=O)c3coc4cc(O)c(O)cc4c3=O)c3ccc(O)cc3)[C@H]2SC1 [Example 23]
16 | 0.2 µg/mL | ≤ 0.1 µg/mL | 0.4 µg/mL | 0.4 µg/mL | ≤ 0.1 µg/mL | 0.8 µg/mL | Cn1nnnc1SCC1=C(C(=O)O)N2C(=O)[C@@H](NC(=O)[C@H](NC(=O)c3coc4cc(O)c(O)cc4c3=O)c3ccc(O)cc3)[C@H]2SC1 [Example 3, 7β-[D-2-(6,7-Dihydroxychromone-3-carboxamido)-2-(4-hydroxyphenyl)acetamido]-3-[(1-methyltetrazol-5-yl)thiomethyl]-3-cephem-4-carboxylic acid]
17 | 3.13 µg/mL | ≤ 0.1 µg/mL | 50 µg/mL | 0.4 µg/mL | 0.8 µg/mL | 3.13 µg/mL | Cn1nnnc1SCC1=C(C(=O)O)N2C(=O)[C@@H](NC(=O)[C@H](NC(=O)c3coc4c(O)c(O)c(O)cc4c3=O)c3ccc(O)cc3)[C@H]2SC1 [Example 28, 7β-[D-2-(6,7,8-Trihydroxychromone-3-carboxamido)-2-(4-hydroxyphenyl)acetamido]-3-[(1-methyltetrazol-5-yl)thiomethyl]-3-cephem-4-carboxylic acid]
